Data set [1] deals with endotoxin-induced uveitis (EIU) animal model. The note with it: 24 hours after intravitreal treatment; LPS alone ~45% vasodilation.
Protocol: Adult male Lewis rats (weight 310-350 g) were used as an endotoxin-induced uveitis (EIU) animal model. LPS from Salmonella Typhimurium (Sigma Aldrich, St. Louis, Mo.) was mixed with PBS immediately prior to the injection. The animals were divided as followed:
Control: intravitreal injection of LPS at day 0. ˜5 μl intravitreal injection of control gel (no dexamethasone) at 24 hrs after the LPS induction (day 1);
Treatment control: intravitreal injection of LPS at day 0. ˜5 μl intravitreal injection of dexamethasone (10 mg/ml dose, Sigma) at 24 hrs after the LPS induction;
Treatment 1: intravitreal injection of LPS at day 0. ˜5 μl intravitreal injection of dexamethasone hydrogel (10 mg/ml dose, Sigma) at 24 hrs after the LPS induction; and
Treatment 2: intravitreal injection of LPS at day 0. ˜5 μl subconjunctival injection of dexamethasone hydrogel (10 mg/ml dose, Sigma) at 24 hrs after the LPS induction.
The dexamethasone was loaded by equilibrating 0.1 ml of hydrogel in 2 ml of dexamethasone drug solution. SLO images and blood flow measurement were obtained before the LPS induction, 1, 2, 3, and 6 days after the LPS (and dexametheasone treatment). Furthermore, in one animal, the thermo-hydrogel (control) was applied directly to the cornea (simulate eyedrops).
A short description of data set [2]: Drug encapsulation efficiency in PLGA particles. Format: physicochemical. On the procedure: The clear organic mixture was emulsified into an external aqueous phase (5 ml, 2% w/v PVA) with vortexing for 20 seconds followed by sonication on ice at 55 W for 5 minutes. […] Nanospheres were harvested by ultracentrifugation at 16,000 g for 10 min, after which the resultant pellet was re-suspended in DI water by sonication and washed twice with DI water. […] Dynamic light scattering (DLS) was used to characterize the size of the nanospheres. To investigate nanosphere encapsulation in thermo-responsive hydrogels, nanospheres were added into the hydrogel precursor solutions at 0, 2.5, 5, and 10 mg/ml prior to polymerization initiated by the addition of TEMED. The hydrogels were then washed 5 times with PBS every 20 minutes, as described for hydrogels with no nanospheres. Swelling ratio was tested for hydrogels with varying concentration of nanospheres at both room and body temperature.
The drug concentration was determined spectrophotometrically at 240 nm. […] The encapsulation efficiency was calculated as (actual drug loaded/total drug used)×100%.

The conditions of data set [3]: cited from earlier work.

Structures are written as SMILES. Structures can show the parent of a compound that is named as a salt. Where two headings read alike, the source gives them in different places.

As for `C[C@@H]1C[C@H]2[C@@H]3CCC4=CC(=O)C=C[C@]4(C)[C@@]3(F)[C@@H](O)C[C@]2(C)[C@@]1(O)C(=O)CO` [dexamethasone], the “degree of dilation of retinal vessels” value in data set [1] is listed as roughly 15%. The results for the encapsulation efficiency in data set [2] (dexamethasone 1:2 (w/w) of PLGA) and in data set [2] (dexamethasone 1:10 (w/w) of PLGA) were 7.5% and 2.5%, respectively.

`C[C@@H]1C[C@H]2[C@@H]3CCC4=CC(=O)C=C[C@]4(C)[C@@]3(F)[C@@H](O)C[C@]2(C)[C@@]1(O)C(=O)COP(=O)(O)O` [DSP, Dexamethasone 21-phosphate disodium salt]: the “P (oil/water)” value is 0.06 (Methylene chloride + methanol / 0.2% PVA), 0.15 (Methylene chloride + methanol / 2% PVA), 0.86 (Methylene chloride + methanol / 2% PVA + 0.25N (NH4)2SO4) and 0.26 (Methylene chloride + methanol / 2% PVA + 0.5N NaCl). In data set [3], the solubility in water was greater than 50 mg/mL.

(Values after patent US20120231072A1, “THERMO-RESPONSIVE HYDROGEL COMPOSITIONS” (Chemisches Institut Schaefer AG, priority 2011, published 2012).)
